Measured values reported in the NIST ThermoML archive (doi:10.1016/j.jct.2011.10.023).

Conditions: Liquid, Vibrating tube method

CCCCCO [pentan-1-ol]
mass density [kg/m3]
Conditions	278.15 K	288.15 K	298.15 K	308.15 K	318.15 K	328.15 K	338.15 K	348.15 K	358.15 K
100 kPa	825.2	818	810.7	803.3	795.8	788.2	780.3	772.3	763.8
1000 kPa	825.8	818.7	811.3	804	796.6	789	781.2	773.1	764.8
5000 kPa	828.5	821.5	814.2	807	799.8	792.3	784.8	776.9	768.8
10000 kPa	831.6	824.8	817.7	810.7	803.6	796.3	788.9	781.2	773.5
15000 kPa	834.7	828	821	814	807.2	800.1	792.9	785.5	777.9
20000 kPa	837.6	831.1	824.3	817.5	810.7	803.8	796.7	789.5	782.1
25000 kPa	840.4	834	827.3	820.7	814	807.2	800.3	793.3	786.1
30000 kPa	843.2	836.9	830.3	823.8	817.3	810.6	803.8	796.9	789.9
35000 kPa	845.9	839.7	833.2	826.8	820.4	813.8	807.2	800.4	793.6
40000 kPa	848.6	842.4	836	829.7	823.4	817	810.5	803.8	797.1
45000 kPa	851.1	845	838.7	832.5	826.3	820	813.6	807.1	800.5
50000 kPa	853.6	847.6	841.4	835.3	829.1	822.9	816.6	810.3	803.8
55000 kPa	856.1	850.1	844	838	831.9	825.8	819.6	813.3	807
60000 kPa	858.4	852.5	846.4	840.4	834.6	828.4	822.5	816.2	810
